Measured values from patent US11679110B2, “Methods of treating disorders using CSF1R inhibitors” (Deciphera Pharmaceuticals, LLC, priority 2018, dated 2023).

What was measured:
in vivo = conditions: beagle, dog
[1] = system: CD11b+/F4/80+ intratumoral macrophages; assay: Syngeneic MC38 mouse model of colorectal cancer, tumor-associated macrophages by flow cytometry, 7 days of treatment; assay type: in vivo; conditions: MC38 mice, seven days
Experimental: The protocol and procedures involving the care and use of animals in the syngeneic MC38 mouse xenograft models below were reviewed and approved by the Institutional Animal Care and Use Committee (IACUC) of CrownBio (Taicang Jiangsu Province, China) prior to conduct. During the study, the care and use of animals was conducted in accordance with the regulations of the Association for Assessment and Accreditation of Laboratory Animal Care (AAALAC). All mice had food and water ad libitum. […] In the first experiment, six- to eight-week old female C57BL/6 mice were inoculated subcutaneously in the right lower flank with one million MC38 tumor cells in Phosphate Buffered Saline. […] Tumor volume and body weight were measured thrice weekly. Tumor burden (mg) was estimated from caliper measurements by the formula: tumor burden (mg=mm^3)=(length×width^2)/2. Tumors were collected at 2 hours post the 7th dose on day 18 and freshly processed to assess infiltrating tumor-associated macrophages by flow cytometry using antibodies to CD11b+, F4/80, and CD45+. First, tumors were washed in phosphate-buffered saline and treated with collagenase and DNase. After treatment, cells were repeatedly passed through a 70 μm cell strainer. Cells were further washed, resuspended in red blood cell lysing buffer, then washed again. […]

CSF1 = assay: Plasma CSF1 levels in patients, ELISA; assay type: in vivo, human; conditions: average at C2D1 vs C1D1
Experimental: (§1) PK analysis was conducted on all 38 patients. Serial blood samples were collected for PK and took place on either Day −7, Cycle 1, Day 1 (C1D1) and C2D1 at pre-dose, 0.5, 1, 2, 4, 6, 8, 10-12, and 24 hr time points or Day −7, C1D1, C1D8, and C2D1 at pre-dose, 1, 2, 4, 6, and 8 hr time points, or C1D1, C1D8, and C2D1 at pre-dose, 1, 2, 4, 6, and 8 hr time points. High fat meal was given prior to dosing of Compound 1 on Day −7. PD effects were measured by two methodologies: 1) depletion of CSF1R-expressing monocytes in peripheral blood (Cohorts 1-7) from C1D1, C1D15 and C2D1; and 2) increase of plasma levels of CSF1 and IL-34, the ligands for CSF1R (Cohorts 1-7) on C1D1, C1D15, and C2D1. For the CD16^+ monocyte assay, whole blood collected in an EDTA vacutainer was aliquoted into tubes and incubated with fluorescently-labeled antibodies (CD14-Alexa488 (BD Pharmingen); CD16-PE-Cy7 (BD Pharmingen); and TIE2-APC (R&D Systems). After incubation, red blood cells were lysed, and the remaining cells were washed several times before being analyzed on a flow cytometer. For the plasma CSF1 assay or IL-34, whole blood collected in an EDTA vacutainer was centrifuged, and the plasma was collected and frozen. Plasma levels of CSF1 or IL-34 were measured using a commercial ELISA kit (R&D Systems).

CD16+ monocytes = assay: Depletion of CSF1R-expressing (CD16+) monocytes in peripheral blood of patients, flow cytometry; assay type: in vivo, human; conditions: C2D1 compared to C1D1
Experimental: as §1

**Q.** For `Cc1nc(-c2cnc(NC(C)C)n(C)c2=O)ccc1Oc1ccnc(-c2cnn(C)c2)c1` [Compound 1, 2-(isopropylamino)-3-methyl-5-(6-methyl-5-((2-(1-methyl-1H-pyrazol-4-yl)pyridin-4-yl)oxy)pyridin-2-yl)pyrimidin-4(3H)-one], which NOAEL at 13 weeks (in vivo) is on record?
**A.** Its NOAEL at 13 weeks is 8 mg/kg/day.

**Q.** What about the “reduction in CD11b+/F4/80+ intratumoral macrophages (as a percent of CD45+ cells in the tumor)” value ([1]; 5, 10, 15 mg/kg QD oral) of the same compound?
**A.** The value was “dose-dependent reduction”.

**Q.** And the “reduction of intratumoral macrophages (as a percent of CD45+ cells in the tumor)” value ([1]; high dose (15 mg/kg QD oral))?
**A.** Its value is ~67%.

**Q.** And the “increase in plasma CSF1” value (CSF1; Cohort 1)?
**A.** Its value is 6 fold.

**Q.** And the “increase in plasma CSF1” value (CSF1; Cohort 2)?
**A.** Its value is 1.5 fold.

**Q.** And the “increase in plasma CSF1” value (CSF1; Cohort 3)?
**A.** Its value is 2.9 fold.

**Q.** What about the “increase in plasma CSF1” value (CSF1; Cohort 4) of the same compound?
**A.** The value was 3.2 fold.

**Q.** And the “increase in plasma CSF1” value (CSF1; Cohort 5)?
**A.** The value was 43 fold.

**Q.** What about the “decrease in levels of CSF1R-expressing monocytes” value (from here on “decrease in levels”) (CD16+ monocytes; Cohort 2) of the same compound?
**A.** The value was ~48%.

**Q.** What about the “decrease in levels” value (CD16+ monocytes; Cohort 3) of the same compound?
**A.** The value was ~54%.

**Q.** What about the “decrease in levels” value (CD16+ monocytes; Cohort 4) of the same compound?
**A.** The value was ~79%.

**Q.** What about the “decrease in levels” value (CD16+ monocytes; Cohort 5) of the same compound?
**A.** The value was ~98%.
